System: human granulocytes, fMLF-stimulated F-actin, FITC-phalloidin flow
Test: inhibition of fMLF-induced F-actin formation, mechanism study for Cdc42 probe extension project, cell-based, primary human granulocytes, FITC-phalloidin flow cytometry (AID 652107)
Conditions: at 10 µM; stronger effect = higher value

COc1ccc(C2CC(c3ccccc3)=NN2c2ccc(S(N)(=O)=O)cc2)cc1 (stereo unspecified)
inhibition: 10%

— PubChem BioAssay AID652107 (NMMLSC, 2013)
